{"source": "patent US9545100B2", "about": "“Pesticidal compositions for insects and arthropods” (Stratacor, Inc., priority 2009, dated 2017)", "key": {"Aedes aegypti mosquitoes [1]": {"test_system": "Aedes aegypti mosquitoes", "experiment": "Olfactometer vapor phase repellency", "format": "in vivo", "settings": "FIG. 1", "source_text": "As frequently seen in homologous series of insect repellents (Skinner, W. A. and Johnson, H. L. The design of insect repellents. In: Drug Design, Vol. 10, E J Ariens, Ed., Academic Press, New York, pp. 277-305, 1980), activity at lower chain length is limited by lack of persistence due to high volatility. Activity at higher chain length is limited by lack of volatility, as mosquito repellents are required to have a minimum effective evaporation rate (Reifenrath, W. G. and Robinson, P. B. In Vitro Skin Evaporation and Penetration Characteristics of mosquito repellents. J. Pharm. Sci, 71:1014-1018, 1982; Reifenrath, W. G. and Spencer, T. S. Evaporation and penetration from skin. In: Percutaneous Absorption Mechanisms Methodology Drug Delivery, R L Bronaugh and H I Maibach, Eds., 1st Ed., Marcel Dekker, New York, pp. 305-325, 1985).\nThe straight chain fatty acids octanoic, nonanoic, decanoic, undecanoic, and lauric are designated as C8 through C12, respectively; 3-methylpentanoic acid as 3MPENTAN, 3-methyl-2-pentenoic acid as 3M2PENTEN, 2-octenoic acid as 2OCTEN, 3-methyl-2-octenoic acid as 3M2OCTEN, and 4-methyloctanoic acid as 4MOCTAN. N,N-Diethyl-m-toluamide is designated as DEET."}, "eggs of Aedes aegypti": {"test_system": "eggs of Aedes aegypti", "settings": "Cline 1972; cited from earlier work"}, "Aedes aegypti mosquitoes [2]": {"test_system": "Aedes aegypti mosquitoes", "experimental": "Fifteen female Aedes aegypti mosquitoes were placed in the dishes and their fate observed over a 48 hour period.\nTo further investigate the incapacitating and lethal effect of the C8910 composition, water dispersions of the same formulation of C8910 were tested in the laboratory against Aedes aegypti mosquitoes. Graded dilutions of C8910/Kaolin-P were prepared by dispersing the powder in water (2 grams of powder in 100 ml of water, the concentration used in the field) where the lowest concentration was 0.0075% (Table 1). One ml of each dispersion was evenly pipetted over a disk of filter paper (9 cm diameter, Whatman No. 1) contained in disposable petri dishes. Approximately 15 female Aedes aegypti mosquitoes, 6-10 days of age, were placed in the Petri dishes and covered to prevent mosquito escape. The dishes were maintained in an environmental chamber (76-80° F. and approximately 60% humidity) and observations were made of incapacitation and mortality at various times after treatments (Table 1)."}, "Aedes aegypti": {"test_system": "Aedes aegypti", "experiment": "Minimum effective dose to repel mosquitoes, applied to the skin", "format": "in vivo", "experimental": "Notes: • 1. Even at the lowest dose (1.18 ug/cm2), there are behavioral effects from […]. […] After 16 minutes exposure, mosquitoes were transferred to fresh plates containing only distilled water. […] […] and DEET (N,N-diethyl-m-toluamide) have similar potencies to repel Aedes aegypti when both are applied to the skin. The minimum effective dose (MED) of […] to repel mosquitoes is estimated at 25 ug/cm^2, the measured MED value for DEET."}, "house fly larvae": {"test_system": "house fly larvae", "settings": "Levinson and Simon Ascher 1954; cited from earlier work"}, "[3]": {"test_system": "Aedes aegypti instar IV larvae and pupae", "settings": "Quraishi and Thorsteinson 1965; cited from earlier work"}, "[4]": {"settings": "20° C.; cited from earlier work"}, "[5]": {"settings": "emulsion formulations; cited from earlier work"}, "[6]": {"settings": "0.3000% in water dispersion, dose 47 ug/cm2"}}, "note": "Where two headings read alike, the source gives them in different places."}
{"smiles": "CCCCCCCC(=O)O", "note": "[C8, octanoic acid]", "values": [{"measurement": "repellency in olfactometer", "setting": "Aedes aegypti mosquitoes [1]", "value": "at or near the top of the repellency"}, {"measurement": "ovicidal activity", "setting": "eggs of Aedes aegypti", "value": "ovicidal activity"}]}
{"smiles": "CCCCCCCCC(=O)O", "note": "[C9, nonanoic acid]", "values": [{"measurement": "repellency in olfactometer", "setting": "Aedes aegypti mosquitoes [1]", "value": "at or near the top of the repellency"}, {"measurement": "ovicidal activity", "setting": "eggs of Aedes aegypti", "value": "ovicidal activity"}]}
{"smiles": "CCCCCCCCCC(=O)O", "note": "[C10, decanoic acid]", "values": [{"measurement": "repellency in olfactometer", "setting": "Aedes aegypti mosquitoes [1]", "value": "at or near the top of the repellency"}]}
{"smiles": "CCN(CC)C(=O)c1cccc(C)c1", "note": "[DEET, N,N-diethyl-m-toluamide]", "values": [{"measurement": "immediate incapacitation", "setting": "Aedes aegypti mosquitoes [2]; 47 ug/cm^2", "value": "did not involve immediate incapacitation"}, {"measurement": "mortality at 24 hours", "setting": "Aedes aegypti mosquitoes [2]; 47 ug/cm^2", "value": "did cause fly and mosquito mortality"}, {"measurement": "minimum effective dose (MED) to repel mosquitoes", "setting": "Aedes aegypti", "value": 25, "unit": "ug/cm^2"}, {"measurement": "immediate incapacitation", "setting": "flies; 47 ug/cm^2", "value": "did not involve immediate incapacitation"}, {"measurement": "mortality at 24 hours", "setting": "flies; 47 ug/cm^2", "value": "did cause fly and mosquito mortality"}]}
{"smiles": "CC(O)C(=O)O", "note": "(stereo not shown) [Lactic Acid, lactic acid]", "values": [{"measurement": "% Incapac. in 10 m exp.", "setting": "Aedes aegypti mosquitoes [2]; [6]", "value": 0, "unit": "%"}, {"measurement": "% Incapac. in 25 m exp.", "setting": "Aedes aegypti mosquitoes [2]; [6]", "value": 0, "unit": "%"}, {"measurement": "% Incapac. in 24 h exp.", "setting": "Aedes aegypti mosquitoes [2]; [6]", "value": 17, "unit": "%"}, {"measurement": "% motality at 24 hours", "setting": "Aedes aegypti mosquitoes [2]; [6]", "value": 17, "unit": "%"}, {"measurement": "% motality at 48 hours", "setting": "Aedes aegypti mosquitoes [2]; [6]", "value": 17, "unit": "%"}, {"measurement": "% Incapac. in 10 m exp.", "setting": "Aedes aegypti mosquitoes [2]; 0.3000% in water dispersion, dose 47 ug/cm2, listed as lactic acid", "value": "no incapacitation"}, {"measurement": "number dead, noted beside % Incapac. in 24 h exp.", "setting": "Aedes aegypti mosquitoes [2]; 0.3000%, dose 47 ug/cm2", "value": "(2 dead)"}, {"measurement": "toxicity to flies", "setting": "flies; test of acidic pH", "value": "nontoxic to flies"}]}
{"smiles": "CCCCCCCCCCCC(=O)O", "note": "[Lauric acid, lauric acid]", "values": [{"measurement": "larvicidal activity for housefly larvae", "setting": "house fly larvae", "value": "declining activity"}, {"measurement": "toxicity to instar IV larvae and pupae", "setting": "[3]", "value": "not"}, {"measurement": "toxicity to flies", "setting": "flies; EC formulation", "value": "non-toxic"}]}
{"smiles": "CCN(CC)CC(=O)Nc1c(C)cccc1C", "note": "[lidocaine free base, lidocaine]", "values": [{"measurement": "fly incapacitation", "setting": "flies; freshly prepared aqueous emulsions 47 ug/cm^2 or 15% concentration in mineral oil", "value": "did not cause fly incapacitation"}]}
{"smiles": "CC1(C)C(C=C(Cl)Cl)C1C(=O)OCc1cccc(Oc2ccccc2)c1", "note": "(stereo not shown) [permethrin]", "values": [{"measurement": "vapor pressure", "setting": "[4]", "value": "about 10^−8 mm Hg"}, {"measurement": "skin absorption", "setting": "[5]", "value": "about 30%"}, {"measurement": "reversibility of incapacitation", "setting": "Aedes aegypti mosquitoes [2]; dose of 4.7 ug/cm^2", "value": "irreversible"}, {"measurement": "reversibility of incapacitation", "setting": "flies; dose of 4.7 ug/cm^2", "value": "irreversible"}]}
{"smiles": "CCCCCCCCCCC(=O)O", "note": "[undecanoic acid]", "values": [{"measurement": "larvicidal activity for housefly larvae", "setting": "house fly larvae", "value": "declining activity"}]}
{"smiles": "C=CCCCCCCCCC(=O)O", "note": "[undecylenic]", "values": [{"measurement": "ovicidal activity", "setting": "eggs of Aedes aegypti", "value": "ovicidal activity"}]}
